Reference: ChEMBL document CHEMBL1201862, “PubChem BioAssay data set” (2004)
Calls of active or inactive are those of the source.

Tests used:
[1] = system: HEK293; assay: cells; format: functional, cell-based; settings: Homo sapiens
[2] = molecular target: T1, Nuclear receptor subfamily 0 group B member 1 (Homo sapiens, UniProt P51843); assay: Luminescence-based cell-based high throughput dose response assay for inhibitors of the orphan nuclear receptor subfamily 0, group B, member 1 (DAX1; NR0B1). [Related pubchem assays (depositor defined):AID504766, AID504790]; format: functional
T1 sequence (P51843 whole entry): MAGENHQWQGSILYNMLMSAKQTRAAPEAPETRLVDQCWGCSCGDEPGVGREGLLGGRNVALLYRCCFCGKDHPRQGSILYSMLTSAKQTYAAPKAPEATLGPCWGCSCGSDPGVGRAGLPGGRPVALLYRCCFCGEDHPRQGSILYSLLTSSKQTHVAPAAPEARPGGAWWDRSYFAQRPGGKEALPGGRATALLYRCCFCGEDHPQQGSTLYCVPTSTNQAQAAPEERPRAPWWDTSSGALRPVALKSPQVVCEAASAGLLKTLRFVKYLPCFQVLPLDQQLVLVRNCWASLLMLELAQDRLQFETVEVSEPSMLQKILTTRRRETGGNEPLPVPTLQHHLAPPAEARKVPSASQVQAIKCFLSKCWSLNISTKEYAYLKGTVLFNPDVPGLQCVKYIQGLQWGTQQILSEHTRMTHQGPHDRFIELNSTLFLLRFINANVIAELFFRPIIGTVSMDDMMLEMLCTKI

[3] = molecular target: T2, Protein skinhead-1 (Caenorhabditis elegans, UniProt P34707); format: functional
T2 sequence (P34707 whole entry): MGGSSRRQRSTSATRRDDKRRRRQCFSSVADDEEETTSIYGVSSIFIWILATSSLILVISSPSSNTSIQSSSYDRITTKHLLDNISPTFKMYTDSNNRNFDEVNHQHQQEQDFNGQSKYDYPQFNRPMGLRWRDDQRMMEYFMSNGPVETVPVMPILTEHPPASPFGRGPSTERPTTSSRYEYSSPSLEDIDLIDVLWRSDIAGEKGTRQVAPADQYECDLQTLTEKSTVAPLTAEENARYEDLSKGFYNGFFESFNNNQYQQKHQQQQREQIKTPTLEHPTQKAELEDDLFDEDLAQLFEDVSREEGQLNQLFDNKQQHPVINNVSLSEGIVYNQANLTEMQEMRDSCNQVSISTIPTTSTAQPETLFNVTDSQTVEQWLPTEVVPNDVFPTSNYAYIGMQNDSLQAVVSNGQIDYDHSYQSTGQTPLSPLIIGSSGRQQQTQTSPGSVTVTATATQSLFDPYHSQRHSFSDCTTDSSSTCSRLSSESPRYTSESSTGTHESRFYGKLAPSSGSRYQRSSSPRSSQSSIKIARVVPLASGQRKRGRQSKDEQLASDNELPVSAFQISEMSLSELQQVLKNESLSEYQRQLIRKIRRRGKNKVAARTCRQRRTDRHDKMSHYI

[4] = system: HeLa; assay: ATP-based viability loss in HeLa cells – cell-based, CellTiter-Glo luminescence, cherry-pick samples, cytotoxicity control for MITF activator project, dose response (AID 540259); format: functional; settings: Homo sapiens
[5] = molecular target: Trypsin (Sus scrofa, UniProt P00761); assay: trypsin protease activity blockade – biochemical, quenched peptide fluorescence, cherry-pick, selectivity assay for Rce1 protease inhibitor project, dose response (AID 488789)
Sequence of Trypsin (P00761 whole entry): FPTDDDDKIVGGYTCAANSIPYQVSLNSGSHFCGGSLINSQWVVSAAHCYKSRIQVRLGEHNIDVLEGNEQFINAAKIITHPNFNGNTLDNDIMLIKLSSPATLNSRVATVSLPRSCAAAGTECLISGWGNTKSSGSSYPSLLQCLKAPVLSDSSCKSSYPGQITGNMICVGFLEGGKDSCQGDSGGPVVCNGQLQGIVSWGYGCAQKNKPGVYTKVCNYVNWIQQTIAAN

[6] = molecular target: FAD-linked sulfhydryl oxidase ALR (Homo sapiens, UniProt P55789); assay: ALR-catalysed DTT oxidation blockers – biochemical, H2O2 detection, luminescence, cherry-pick, dose response (AID 493248)
Sequence of FAD-linked sulfhydryl oxidase ALR (P55789 whole entry): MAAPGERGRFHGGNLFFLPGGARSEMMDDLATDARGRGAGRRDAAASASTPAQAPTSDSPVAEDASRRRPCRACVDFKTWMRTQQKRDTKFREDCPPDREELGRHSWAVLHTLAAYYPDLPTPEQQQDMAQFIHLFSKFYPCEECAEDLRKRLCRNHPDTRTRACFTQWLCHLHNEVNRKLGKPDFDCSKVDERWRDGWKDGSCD

[7] = molecular target: T3, CAAX prenyl protease 2 (Homo sapiens, UniProt Q9Y256); assay: inhibition of Ras-converting CAAX protease Rce1 – biochemical, yeast membranes, quenched-peptide fluorescence, cherry-pick, dose response (AID 588849)
T3 sequence (Q9Y256 whole entry): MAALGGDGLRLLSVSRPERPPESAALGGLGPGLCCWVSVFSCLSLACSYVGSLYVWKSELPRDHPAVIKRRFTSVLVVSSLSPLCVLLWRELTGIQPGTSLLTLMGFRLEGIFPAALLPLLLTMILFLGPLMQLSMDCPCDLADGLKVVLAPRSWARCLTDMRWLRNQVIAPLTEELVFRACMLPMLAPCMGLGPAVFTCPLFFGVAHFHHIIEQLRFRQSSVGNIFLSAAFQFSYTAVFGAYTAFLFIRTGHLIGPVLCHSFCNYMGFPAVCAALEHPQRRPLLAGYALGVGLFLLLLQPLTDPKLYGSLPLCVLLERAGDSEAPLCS

[8] = molecular target: T4, Rac GTPase-activating protein 1 (Homo sapiens, UniProt Q9H0H5); assay: blockers of MgcRacGAP-driven Rac1 GTP hydrolysis – biochemical, ADP Hunter fluorescence, primary and confirmatory, confirmation (AID 624330); format: functional
T4 sequence (Q9H0H5 whole entry): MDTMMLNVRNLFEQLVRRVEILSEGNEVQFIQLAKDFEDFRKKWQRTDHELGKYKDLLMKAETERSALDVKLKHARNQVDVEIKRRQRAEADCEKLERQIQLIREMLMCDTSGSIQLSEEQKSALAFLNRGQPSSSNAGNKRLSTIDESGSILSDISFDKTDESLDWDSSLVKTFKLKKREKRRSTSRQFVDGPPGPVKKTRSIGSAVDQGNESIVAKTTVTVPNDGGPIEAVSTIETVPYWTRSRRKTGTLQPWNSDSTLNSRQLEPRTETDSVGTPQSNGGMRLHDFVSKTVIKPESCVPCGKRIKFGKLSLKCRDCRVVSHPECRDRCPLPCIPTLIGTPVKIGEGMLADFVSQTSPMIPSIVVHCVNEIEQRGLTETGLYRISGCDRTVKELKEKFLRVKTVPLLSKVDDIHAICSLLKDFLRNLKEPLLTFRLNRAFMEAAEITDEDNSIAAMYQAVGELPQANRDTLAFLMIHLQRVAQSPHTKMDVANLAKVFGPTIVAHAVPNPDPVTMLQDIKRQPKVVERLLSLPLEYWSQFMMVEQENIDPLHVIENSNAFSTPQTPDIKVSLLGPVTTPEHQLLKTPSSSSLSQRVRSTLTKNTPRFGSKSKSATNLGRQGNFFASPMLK

[9] = viability loss in HeLa cells – cytotoxicity control for MgcRacGAP inhibitor project, dose response (AID 624300); format: functional
[10] = molecular target: T5, Ubiquitin-conjugating enzyme E2 N (Homo sapiens, UniProt P61088); format: functional;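 also: Dose-response confirmation in a TR-FRET assay detecting UBC13-driven polyubiquitin chain formation, inhibition measured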
T5 sequence (P61088 whole entry): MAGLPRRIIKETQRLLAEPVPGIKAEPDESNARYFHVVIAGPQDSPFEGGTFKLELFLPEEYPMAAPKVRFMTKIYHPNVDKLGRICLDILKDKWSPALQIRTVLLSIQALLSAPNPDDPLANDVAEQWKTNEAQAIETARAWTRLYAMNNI

[11] = Luminescence Cell-Based Dose Retest to Confirm Inhibitors of Cancer Stem Cells. [Related pubchem assays (depositor defined):AID2717, AID2721]; format: functional; settings: Homo sapiens
[12] = system: A-375; assay: proliferation inhibition in MITF-low A375 cells – cell-based, cherry-pick samples, set 2, counter-screen for MITF modulator project, dose response (AID 540335); format: functional; settings: Homo sapiens
[13] = A cytotoxicity screen of small molecule inhibitors of the PhoP region in Salmonella typhi identified in the primary screen. [Related pubchem assays: 1850, 1864, 1985 ]; format: functional
[14] = molecular target: T6, Small ubiquitin-related modifier 1 (Homo sapiens, UniProt P63165); assay: SUMO1 protein interaction blockers, potency – biochemical, fluorescence polarization, uHTS hits, dose response (AID 624382); format: functional; settings: read-out: IC50_Mean
T6 sequence (P63165 whole entry): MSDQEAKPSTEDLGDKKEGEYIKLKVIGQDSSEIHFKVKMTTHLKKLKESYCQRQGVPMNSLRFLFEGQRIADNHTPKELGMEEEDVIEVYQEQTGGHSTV

[15] = system: Streptococcus sp. 'group A'; assay: Streptococcus pyogenes SK(-)GAS viability under kanamycin – luminescence, BacTiterGlo, confirmation, counter-screen for streptokinase expression inhibitor project, dose response (AID 1900); format: functional, organism-based
[16] = molecular target: T6, Small ubiquitin-related modifier 1; assay: SUMO1 protein-protein binding blockers, potency – biochemical, FRET, dose response (AID 624383); format: functional; settings: read-out: IC50_Mean
[17] = molecular target: T7, Streptokinase A (Streptococcus pyogenes serotype M1, UniProt P10520); assay: viability-normalized secreted streptokinase activity reduction – plasminogen activation absorbance, OD405, dose response (AID 1914); format: functional, Streptococcus pyogenes M1 GAS;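 also: secreted streptokinase activity via plasminogen activation per viability signal from cell pellet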
T7 sequence (P10520 whole entry): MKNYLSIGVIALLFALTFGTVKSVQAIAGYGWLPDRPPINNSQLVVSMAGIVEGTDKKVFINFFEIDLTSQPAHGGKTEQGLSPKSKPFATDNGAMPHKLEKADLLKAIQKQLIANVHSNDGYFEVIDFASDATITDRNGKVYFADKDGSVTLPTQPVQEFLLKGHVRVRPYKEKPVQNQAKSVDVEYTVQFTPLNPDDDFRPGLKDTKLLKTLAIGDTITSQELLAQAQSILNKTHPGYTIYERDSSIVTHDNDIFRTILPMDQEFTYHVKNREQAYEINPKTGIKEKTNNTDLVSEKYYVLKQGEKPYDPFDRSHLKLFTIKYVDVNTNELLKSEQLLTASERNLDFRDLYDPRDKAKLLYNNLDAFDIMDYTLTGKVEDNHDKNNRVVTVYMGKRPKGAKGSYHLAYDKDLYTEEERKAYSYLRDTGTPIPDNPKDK

[18] = molecular target: Induced myeloid leukemia cell differentiation protein Mcl-1 (Homo sapiens, UniProt Q07820); format: functional
Sequence of Induced myeloid leukemia cell differentiation protein Mcl-1 (Q07820 whole entry): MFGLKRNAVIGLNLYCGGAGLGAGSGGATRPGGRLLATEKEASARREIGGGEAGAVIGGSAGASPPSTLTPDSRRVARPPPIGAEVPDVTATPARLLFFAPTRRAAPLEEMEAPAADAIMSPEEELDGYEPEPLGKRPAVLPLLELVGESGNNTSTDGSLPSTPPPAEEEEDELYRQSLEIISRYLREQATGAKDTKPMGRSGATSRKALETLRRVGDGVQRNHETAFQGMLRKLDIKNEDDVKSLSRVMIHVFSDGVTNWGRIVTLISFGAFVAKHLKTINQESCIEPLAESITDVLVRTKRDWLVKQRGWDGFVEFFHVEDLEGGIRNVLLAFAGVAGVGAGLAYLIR

[19] = system: Streptococcus; assay: GAS UMAA2166 growth inhibition – luminescence, BacTiterGlo, counter-screen for streptokinase expression inhibitor project, dose response (AID 1915); format: functional, organism-based;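 also: potency for reduction of bacterial viability or growth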
[20] = molecular target: T8, Zinc finger protein mex-5 (Caenorhabditis elegans, UniProt Q9XUB2); assay: potency of MEX-5 RNA-binding blockers – biochemical, C. elegans, fluorescence polarization, dose response (AID 1960)
T8 sequence (Q9XUB2 whole entry): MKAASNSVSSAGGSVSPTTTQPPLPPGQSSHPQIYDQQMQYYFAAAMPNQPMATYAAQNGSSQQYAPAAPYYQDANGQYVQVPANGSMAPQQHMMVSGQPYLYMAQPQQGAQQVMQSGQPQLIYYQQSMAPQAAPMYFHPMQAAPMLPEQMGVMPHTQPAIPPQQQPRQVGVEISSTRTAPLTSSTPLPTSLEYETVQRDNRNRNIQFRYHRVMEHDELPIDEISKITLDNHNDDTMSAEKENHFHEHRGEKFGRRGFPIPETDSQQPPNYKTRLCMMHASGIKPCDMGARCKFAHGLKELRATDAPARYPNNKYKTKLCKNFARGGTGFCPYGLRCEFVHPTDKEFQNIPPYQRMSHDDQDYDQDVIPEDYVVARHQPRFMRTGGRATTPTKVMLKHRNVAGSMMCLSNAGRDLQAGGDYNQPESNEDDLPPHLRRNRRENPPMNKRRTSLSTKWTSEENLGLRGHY

[21] = molecular target: T9, Endoribonuclease toxin MazF (Escherichia coli K-12, UniProt P0AE70); assay: substrate-only fluorescence increase artefacts – biochemical, single-stranded RNase substrate, counter-screen for MazEF activator project, dose response (AID 588502); format: functional
T9 sequence (P0AE70 whole entry): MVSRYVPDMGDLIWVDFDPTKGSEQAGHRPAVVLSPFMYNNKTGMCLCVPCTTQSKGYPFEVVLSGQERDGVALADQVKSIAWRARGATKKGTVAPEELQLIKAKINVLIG

[22] = molecular target: T10, RNA-binding protein pos-1 (Caenorhabditis elegans, UniProt G5EF15); assay: disruptors of C. elegans POS-1 RNA interaction – biochemical, fluorescence polarization, dose response (AID 1964);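 also: purified POS-1 fused to maltose binding protein made in E. coli; potency of compounds blocking POS-1 binding to fluorescent RNA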
T10 sequence (G5EF15 whole entry): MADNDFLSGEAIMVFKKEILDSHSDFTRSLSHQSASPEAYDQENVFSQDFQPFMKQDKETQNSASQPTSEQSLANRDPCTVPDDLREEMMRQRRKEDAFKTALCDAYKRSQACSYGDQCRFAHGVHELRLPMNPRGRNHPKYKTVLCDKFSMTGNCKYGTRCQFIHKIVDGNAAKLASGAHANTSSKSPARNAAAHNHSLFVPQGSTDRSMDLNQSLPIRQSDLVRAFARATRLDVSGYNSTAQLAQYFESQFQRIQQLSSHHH

[23] = molecular target: T9, Endoribonuclease toxin MazF; assay: activation of MazEF endoribonuclease cleavage – biochemical, fluorescence, single-stranded RNA substrate, uHTS hits, dose response (AID 588481); format: functional
[24] = molecular target: Cytochrome P450 3A4 (Homo sapiens, UniProt P08684);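 also: CYP3A4 tested as one member of a cytochrome P450 panel screen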
Sequence of Cytochrome P450 3A4 (P08684 whole entry): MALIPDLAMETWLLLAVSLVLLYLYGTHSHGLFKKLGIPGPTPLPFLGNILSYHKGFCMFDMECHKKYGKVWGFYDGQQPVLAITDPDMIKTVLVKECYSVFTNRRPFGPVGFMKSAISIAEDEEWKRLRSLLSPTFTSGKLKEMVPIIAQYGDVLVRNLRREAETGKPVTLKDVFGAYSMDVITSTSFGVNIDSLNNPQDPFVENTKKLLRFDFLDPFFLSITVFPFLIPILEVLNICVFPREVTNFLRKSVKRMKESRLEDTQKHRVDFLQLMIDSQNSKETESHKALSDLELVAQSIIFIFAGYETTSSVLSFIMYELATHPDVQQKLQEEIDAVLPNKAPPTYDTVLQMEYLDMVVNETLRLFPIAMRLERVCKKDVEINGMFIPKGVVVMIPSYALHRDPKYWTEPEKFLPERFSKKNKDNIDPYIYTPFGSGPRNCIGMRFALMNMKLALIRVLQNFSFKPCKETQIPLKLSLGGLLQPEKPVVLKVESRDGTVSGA

[25] = molecular target: Cytochrome P450 2D6 (Homo sapiens, UniProt P10635);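 also: CYP2D6 member of a cytochrome P450 panel assay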
Sequence of Cytochrome P450 2D6 (P10635 whole entry): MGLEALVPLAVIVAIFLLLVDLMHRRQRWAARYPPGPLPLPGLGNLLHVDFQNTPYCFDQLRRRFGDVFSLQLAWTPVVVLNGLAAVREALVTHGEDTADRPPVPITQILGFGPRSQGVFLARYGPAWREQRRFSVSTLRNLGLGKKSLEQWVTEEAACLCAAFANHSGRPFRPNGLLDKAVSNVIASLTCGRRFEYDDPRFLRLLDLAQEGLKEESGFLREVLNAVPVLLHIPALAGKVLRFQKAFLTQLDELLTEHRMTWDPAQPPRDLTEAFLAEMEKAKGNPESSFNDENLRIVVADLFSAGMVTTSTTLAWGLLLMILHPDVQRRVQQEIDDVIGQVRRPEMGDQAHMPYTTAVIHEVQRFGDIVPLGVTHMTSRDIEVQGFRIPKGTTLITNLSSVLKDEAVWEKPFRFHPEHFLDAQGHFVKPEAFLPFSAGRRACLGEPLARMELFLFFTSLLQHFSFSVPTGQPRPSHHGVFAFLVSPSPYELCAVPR

In the case of `O=C(c1ccccc1C(F)(F)F)N1CCN(S(=O)(=O)c2ccccc2)CC1`, the IC50 [1] is reported as > 67.6 µM (inactive) and the IC50 [2] is reported as > 67.6 µM (inactive).
In the case of `Clc1ccc(OCc2noc(-c3ccsc3)n2)c(Cl)c1`, the IC50 [3] is reported as > 100 µM (inactive), the IC50 [1] is reported as > 67.5 µM (inactive) and the AC50 [4] is reported as 111 µM (active). For the same compound, the IC50 [2] was > 67.5 µM (inactive).
For `Nc1ccc2[nH]c(-c3ccccc3)nc2c1`, the AC50 [5] was 3.48 µM (active), the AC50 [6] was 2.19 µM (active) and the AC50 [7] was 2.12 µM (active). For the same compound, the IC50 [8] was 30.2 µM (active) and the CC50 [9] was 100 µM (active).
In the case of `NCCc1ccc(OCc2ccccc2)c(OCc2ccccc2)c1`, the IC50 [10] is reported as > 20 µM (inactive), the AC50 [11] is reported as 11.2 µM (active) and the AC50 [12] is reported as 30.2 µM (active).
For `Cc1nc(N2CCOCC2)c2c(C)c(C(=O)Nc3ccccc3C(F)(F)F)sc2n1`, the EC50 [13] was > 50 µM (active) and the AC50 [7] was 15 µM (active).
In the case of `COc1ccc(-c2cc3nc4ccccc4n3c(N)c2C#N)cc1`, the AC50 [4] is reported as 143 µM (active), the IC50 [14] is reported as > 66.6 µM (inactive) and the EC50 [15] is reported as 1.45 µM (active). The IC50 [16] was 7.98 µM (active), the EC50 [17] was > 150 µM (not active) and the IC50 [18] was 2.52 µM (active). The EC50 [19] was 15.7 µM (active).
With `COC(=O)c1cccc2c1NC(=O)C2=O` the IC50 [1] was > 67.6 µM (inactive) and the IC50 [2] was > 67.6 µM (inactive).
With `COc1ccc(-c2cn3cccc(C)c3n2)cc1F` the AC50 [4] was > 350 µM (inactive).
For `O=[N+]([O-])c1cccc(/C=C/c2nc(/C=N/c3ccccc3)c(O)o2)c1`, the EC50 [20] was 39.4 µM (active), the EC50 [21] was 19.2 µM (active) and the EC50 [22] was > 300 µM (not active). For the same compound, the EC50 [23] was > 99 µM (inactive).
With `Cc1cc(C)nc(SCC(=O)N/N=C\c2sccc2C)n1` the AC50 [24] was 15.8 µM (inconclusive) and the AC50 [25] was “inconclusive”.
